Data set [1] is described as follows: oral toxicity (LD50) in mice. As to conditions: mouse, in vivo, read-out: LD50 orally in mice.
Data set [2] can be described thus: clinical theophylline blood level on 4th day, theophylline alone or with idrocilamide (Tables 3 and 4). As to conditions: inferred from clinical blood levels. How it is done:
A series of comparative clinical tests were conducted. Five male adults asthma patients took a simultaneous dose of 200 mg theophylline and 100 mg idocrilamide twice a day orally, at 0800 and 2000 hours. On the 4th day, after establishment of a state of equilibrium, the theophylline blood level in the patients under treatment was determined at various times. The determinations were made by highpressure liquid chromatography (Waters apparatus, Lichrosorb RP 18 adsorbent of Merck, methanol, formamide, monopotassium phosphate solvent. Detection by UV spectrophotometry).
The time in hours (t) after the morning dose is plotted on the x-axis, the time 0 corresponding to the dose of medicine on the 4th day. The theophylline blood concentrations in mg/l (th mg/l) are plotted on the y-axis.

For data set [3] the following is noted: cited from earlier work.
The conditions of data set [4]: cited from earlier work. The source holds these as a separate data set.
The test system of another data set is phosphodiesterase. As to conditions: cited from earlier work.
Another data set relates to bronchial smooth muscles. Particulars: cited from earlier work.
The test system of another data set is mastocytes. As to conditions: hypersensitivity reactions; cited from earlier work.
The nature of a further data set: in vivo. Particulars: rat, po, 15 mg/kg. The procedure:
Groups of the so-treated animals were killed by carotid section 15', 30', 1 h, 2 h, 3 h, 4 h, 6 h, and 8 h after administration of the theophylline. The blood was collected in herparinized, centrifuged tubes, and the plasma was decanted. The theophylline blood level was determined in plasma samples after extraction by liquid chromatography.

The subject of another data set is pulmonary vital capacity. Particulars: digestive disorders, nervous troubles, cardiac troubles, neurological symptoms; cited from earlier work.
The subject of the next data set is cyclic AMP. Particulars: cited from earlier work.

In general, LD50 refers to the dose at which mortality reaches 50%. For orientation: half-life means how long it takes for the measured level to halve. Usually AUC stands for concentration integrated over time. Higher therefore signals high exposure. In general, AUC(0-inf) refers to the area under the concentration-time curve extrapolated to infinity. High values mean high exposure, low ones low exposure. By Cmax is commonly meant the highest concentration seen after dosing.

Molecules are shown by their SMILES. Values joined by “and” are separate entries in the source; they are usually repeats but may differ in a detail not shown here. Equal values may be shown once. Read-outs that look alike come from different tables or passages of the source. A value given as a limit tells only on which side of the number the result lay.

For `CC1(C)OCCN1C(=O)C=Cc1ccc(F)cc1` [Compound VIII, 2,2-dimethyl-3-(4-fluorocinnamoyl) oxazolidine], in data set [1], the LD50 came out at 2000 mg/kg.
Regarding `O=C(C=Cc1ccccc1)NCCO` [Compound I, N-(2-hydroxyethyl)cinnamamide], the “action mechanism on theophylline metabolism” value in [2] is “interference of idrocilamide on the metabolism of theophylline”. Also, the LD50 in [1] came out at 3000 mg/kg.
On to `CC1(C)OCCN1C(=O)C=Cc1ccc(Cl)cc1` [Compound VII, 3-(4-chlorocinnamoyl)-2,2-dimethylloxazolidine], for which the LD50 in [1] is greater than 3200 mg/kg.
Turning to `CC1(C)OCCN1C(=O)C=Cc1ccccc1` [Compound IX, 3-cinnamoyl-2,2-dimethyloxazolidine], in data set [1], the LD50 was greater than 3200 mg/kg.
Turning to `O=C(C=Cc1ccc(F)cc1)NCCO` [Compound V, N-(2-hydroxyethyl)-4-fluorocinnamamide], in data set [1], the LD50 is greater than 3200 mg/kg.
Turning to `Cn1c(=O)c2[nH]cnc2n(C)c1=O` [theophylline, 1,3-dimethylxanthine], the solubility in water entry in [3] is “slightly soluble in water”. Further, the metabolism entry in [4] (in vivo) was “metabolized at the hepatic level to give inactive metabolites eliminated by the kidneys”. Further, in data set [4] (normal adult), the half-life was ~6 h and 4 h. In [4], the oral absorption result was “very good”. Further, the oral absorption entry in [4] (listed as Theophylline) was “absorbed very well orally”. The rectal absorption result in [4] (rectal) is reported as “very irregular”. For the same compound, the inhibition of phosphodiesterase entry in the data set with phosphodiesterase is listed as “competitive inhibition”. Further, the “effect of intrapulmonary administration by aerosol” value in the data set with bronchial smooth muscles (aerosol) is given as “ineffective”. Also, in the data set with bronchial smooth muscles, the bronchodilating action result is reported as “active toward all bronchoconstrictive agents”. Also, the “inhibiting action on mastocytes” value in the data set with mastocytes is on record as “partially inhibiting their degranulation”. In the data set “in vivo”, this compound had an AUC at 8 h of 95.1 µg·h/mL, an AUC(0-inf) of 117 µg·h/mL, a Cmax of 20300 ng/mL and a concentration at 0.25 h of 17500 ng/mL. In “in vivo”, the concentration at 0.5 h worked out at 20300 ng/mL, the concentration at 1 h was determined as 18900 ng/mL, the concentration at 2 h came to 16700 ng/mL and the concentration at 3 h was 13900 ng/mL. In “in vivo”, this compound gave a concentration at 4 h of 12000 ng/mL, a concentration at 6 h of 8040 ng/mL, a concentration at 8 h of 4320 ng/mL and a half-life of 3.47 h. For the same compound, the “concentration above which intolerance signs can appear” value with pulmonary vital capacity is greater than 20000 ng/mL. For the same compound, in the data set with cyclic AMP, the “tissue increase of cyclic AMP” value was “tissue increase of cyclic AMP”.
As to `CN(CCO)C(=O)C=Cc1ccccc1` [Compound III, N-methyl, N-(2-hydroxyethyl)cinnamamide], in data set [1], the LD50 was 3000 mg/kg.
Consider `CC(=O)c1ccc(C=CC(=O)NCCO)cc1` [Compound VI, N-(2-hydroxyethyl)-4-acetylcinnamamide], for which the LD50 in data set [1] stood at 3200 mg/kg.
Same read-out and setting: the figure for `CC(CO)NC(=O)C=Cc1ccccc1` (stereo not shown) [Compound IV, N-[2-(1-hydroxypropyl)]cinnamamide] is 3200 mg/kg; for `O=C(C=Cc1ccc(Cl)cc1)NCCO` [Compound II, N-(2-hydroxyethyl)-4-chlorocinnamamide] it is 1600 mg/kg.
